Reference: ChEMBL document CHEMBL1201862, “PubChem BioAssay data set” (2004)
Active and inactive are the calls of the source.

Tests used:
[1] = inhibitors of clade B AD8 Env fusion, dose response, cell-based, cherry-pick (AID 652062); assay type: functional;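 note: luciferase signal from cell-cell fusion driven by HIV-1 clade B AD8 Env; potency is for inhibitors of fusion seen as a drop in luminescence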
Escherichia coli [2] = assay: microbe, parasite or virus in culture
[3] = CEM21 lymphoblast cell cytotoxicity, dose response, cytotoxicity control for viral fusion inhibitor project, CellTiter-Glo luminescence, cherry-picked (AID 652042); assay type: functional, cell-based;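 note: potency for signal decrease meaning cytotoxicity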
[4] = ZM109 Env clade C HIV-1 fusion inhibitors, dose response, HeLa effector, CEM target cells, luciferase, cherry-pick (AID 652058); assay type: functional, cell-based
[5] = off-target signal loss in HeLa-CEM21 co-culture – HeLa F-luc CTL cells, cherry-picked, counter-screen for HIV-1 Env fusion inhibitor project, dose response (AID 652040); assay type: functional, cell-based;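 note: potency for signal decrease marking cytotoxic or nonspecific inhibition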
Escherichia coli [6] = assay: microbe, parasite or virus in culture; remark: listed apart in the source
[7] = target: 5-hydroxytryptamine receptor 2A (Mus musculus, UniProt P35363); assay type: functional, cell-based;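 note: CHO-K1 cells with tagged receptor and beta-arrestin; agonist potency measured as compound-induced activation of the receptor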
5-hydroxytryptamine receptor 2A, sequence (P35363 whole entry, the tested form may be a part): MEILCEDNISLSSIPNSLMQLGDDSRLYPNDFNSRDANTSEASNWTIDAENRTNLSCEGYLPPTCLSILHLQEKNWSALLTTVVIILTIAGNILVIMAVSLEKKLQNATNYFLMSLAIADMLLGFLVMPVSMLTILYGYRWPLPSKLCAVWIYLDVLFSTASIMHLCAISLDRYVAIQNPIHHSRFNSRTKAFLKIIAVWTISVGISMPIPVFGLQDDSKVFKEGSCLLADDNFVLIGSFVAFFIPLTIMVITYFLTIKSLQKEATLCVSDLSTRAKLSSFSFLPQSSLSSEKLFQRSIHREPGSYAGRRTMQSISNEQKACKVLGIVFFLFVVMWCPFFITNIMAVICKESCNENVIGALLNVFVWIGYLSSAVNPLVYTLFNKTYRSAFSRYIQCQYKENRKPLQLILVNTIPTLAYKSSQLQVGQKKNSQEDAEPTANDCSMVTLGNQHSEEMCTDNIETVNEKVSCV

[8] = inhibitors of HIV Env-driven cell fusion, dose response, cherry-pick (AID 652057); assay type: functional, cell-based
[9] = microbe, parasite or virus in culture; assay type: functional; settings: Mycobacterium tuberculosis
Mu-type opioid receptor = Mu-type opioid receptor (Homo sapiens, UniProt P35372); assay type: functional, cell-based;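 note: U2OS cells with beta-arrestin recruitment to OPRM1 by beta-gal complementation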
Mu-type opioid receptor, sequence (P35372 whole entry): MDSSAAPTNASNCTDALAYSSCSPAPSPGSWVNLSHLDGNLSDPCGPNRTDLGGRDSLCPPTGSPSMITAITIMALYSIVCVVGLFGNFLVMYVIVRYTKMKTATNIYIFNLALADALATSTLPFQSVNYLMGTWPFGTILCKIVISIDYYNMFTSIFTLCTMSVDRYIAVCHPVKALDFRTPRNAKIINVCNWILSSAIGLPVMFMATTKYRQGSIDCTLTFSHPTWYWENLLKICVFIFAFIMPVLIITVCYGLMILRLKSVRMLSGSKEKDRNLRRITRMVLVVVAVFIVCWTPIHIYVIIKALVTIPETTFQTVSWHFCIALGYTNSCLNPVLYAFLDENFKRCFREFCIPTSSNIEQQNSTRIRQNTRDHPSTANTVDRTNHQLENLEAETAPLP

Beta-galactosidase = Beta-galactosidase (Escherichia coli, UniProt Q8VNN2); assay: PubChem AID 485352; assay type: functional
Beta-galactosidase, sequence (Q8VNN2 whole entry): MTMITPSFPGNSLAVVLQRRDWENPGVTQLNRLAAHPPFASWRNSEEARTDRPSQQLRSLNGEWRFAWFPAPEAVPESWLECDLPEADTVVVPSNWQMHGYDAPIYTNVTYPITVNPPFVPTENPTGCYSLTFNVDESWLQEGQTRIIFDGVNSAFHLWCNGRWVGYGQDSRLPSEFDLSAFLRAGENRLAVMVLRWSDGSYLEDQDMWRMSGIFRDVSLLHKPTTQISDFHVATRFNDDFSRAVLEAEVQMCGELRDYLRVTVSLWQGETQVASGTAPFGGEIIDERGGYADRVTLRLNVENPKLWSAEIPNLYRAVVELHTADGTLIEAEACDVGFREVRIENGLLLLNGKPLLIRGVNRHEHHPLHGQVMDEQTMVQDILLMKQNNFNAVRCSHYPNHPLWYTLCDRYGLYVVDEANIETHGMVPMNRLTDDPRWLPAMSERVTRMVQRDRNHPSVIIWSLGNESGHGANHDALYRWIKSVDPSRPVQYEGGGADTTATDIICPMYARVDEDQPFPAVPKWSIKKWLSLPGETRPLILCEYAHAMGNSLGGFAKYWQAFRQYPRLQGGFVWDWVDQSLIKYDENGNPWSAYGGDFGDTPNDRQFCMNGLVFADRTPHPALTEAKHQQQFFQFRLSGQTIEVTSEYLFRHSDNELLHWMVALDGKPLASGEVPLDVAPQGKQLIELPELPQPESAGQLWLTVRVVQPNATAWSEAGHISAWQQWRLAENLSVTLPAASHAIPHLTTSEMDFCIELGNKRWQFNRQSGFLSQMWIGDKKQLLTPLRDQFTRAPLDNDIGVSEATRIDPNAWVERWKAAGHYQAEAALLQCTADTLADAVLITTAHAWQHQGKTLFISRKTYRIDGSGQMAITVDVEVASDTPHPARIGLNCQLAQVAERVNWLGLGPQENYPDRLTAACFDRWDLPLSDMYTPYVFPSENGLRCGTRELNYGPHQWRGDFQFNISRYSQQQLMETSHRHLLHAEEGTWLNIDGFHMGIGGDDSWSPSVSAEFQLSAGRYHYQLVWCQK

[10] = target: T1, Type-1 angiotensin II receptor (Homo sapiens, UniProt P30556); assay: AT1 receptor antagonists, dose response, selectivity assay for APJ receptor antagonist project, cell-based, uHTS hits (AID 463214); assay type: functional;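 note: antagonist potency against angiotensin II stimulated AT1 response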
T1 sequence (P30556 whole entry): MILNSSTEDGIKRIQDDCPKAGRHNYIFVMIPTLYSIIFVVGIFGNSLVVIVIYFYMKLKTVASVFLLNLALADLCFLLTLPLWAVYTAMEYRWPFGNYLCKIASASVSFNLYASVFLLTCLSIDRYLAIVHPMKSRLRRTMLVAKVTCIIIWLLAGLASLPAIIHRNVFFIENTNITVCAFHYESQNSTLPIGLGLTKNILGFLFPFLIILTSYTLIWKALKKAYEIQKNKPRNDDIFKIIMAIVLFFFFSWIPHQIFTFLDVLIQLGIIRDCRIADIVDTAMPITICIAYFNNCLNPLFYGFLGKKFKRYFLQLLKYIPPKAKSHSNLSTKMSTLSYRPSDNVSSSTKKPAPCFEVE

[11] = target: Long-chain-fatty-acid--AMP ligase FadD28 (Mycobacterium tuberculosis, UniProt P9WQ59); assay: Fluorescence polarization aasay to screen for inhibitors that compete for the binding of FadD28 to a bisubstrate Measured in Biochemical System Using Plate Reader - 2147-01_Inhibitor_Dose_CherryPick_Activity.; assay type: functional, Mycobacterium tuberculosis H37Rv
Long-chain-fatty-acid--AMP ligase FadD28, sequence (P9WQ59 whole entry): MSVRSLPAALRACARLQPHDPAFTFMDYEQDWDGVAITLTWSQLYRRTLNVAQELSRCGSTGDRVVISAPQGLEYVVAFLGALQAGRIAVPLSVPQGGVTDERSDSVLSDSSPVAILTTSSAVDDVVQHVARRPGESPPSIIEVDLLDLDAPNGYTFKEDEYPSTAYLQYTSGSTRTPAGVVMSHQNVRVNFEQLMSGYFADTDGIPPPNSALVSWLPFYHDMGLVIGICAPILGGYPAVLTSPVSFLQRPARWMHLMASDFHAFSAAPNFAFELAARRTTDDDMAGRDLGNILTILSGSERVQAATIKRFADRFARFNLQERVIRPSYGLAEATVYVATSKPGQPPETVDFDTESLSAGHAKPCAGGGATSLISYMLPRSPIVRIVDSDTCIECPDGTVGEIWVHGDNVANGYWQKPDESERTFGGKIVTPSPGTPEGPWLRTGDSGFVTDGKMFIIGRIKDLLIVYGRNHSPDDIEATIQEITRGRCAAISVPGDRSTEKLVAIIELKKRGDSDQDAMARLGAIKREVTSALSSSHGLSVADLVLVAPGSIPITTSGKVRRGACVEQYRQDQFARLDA

[12] = target: T2, Apoptotic protease-activating factor 1 (Homo sapiens, UniProt O14727); assay type: functional
T2 sequence (O14727 whole entry): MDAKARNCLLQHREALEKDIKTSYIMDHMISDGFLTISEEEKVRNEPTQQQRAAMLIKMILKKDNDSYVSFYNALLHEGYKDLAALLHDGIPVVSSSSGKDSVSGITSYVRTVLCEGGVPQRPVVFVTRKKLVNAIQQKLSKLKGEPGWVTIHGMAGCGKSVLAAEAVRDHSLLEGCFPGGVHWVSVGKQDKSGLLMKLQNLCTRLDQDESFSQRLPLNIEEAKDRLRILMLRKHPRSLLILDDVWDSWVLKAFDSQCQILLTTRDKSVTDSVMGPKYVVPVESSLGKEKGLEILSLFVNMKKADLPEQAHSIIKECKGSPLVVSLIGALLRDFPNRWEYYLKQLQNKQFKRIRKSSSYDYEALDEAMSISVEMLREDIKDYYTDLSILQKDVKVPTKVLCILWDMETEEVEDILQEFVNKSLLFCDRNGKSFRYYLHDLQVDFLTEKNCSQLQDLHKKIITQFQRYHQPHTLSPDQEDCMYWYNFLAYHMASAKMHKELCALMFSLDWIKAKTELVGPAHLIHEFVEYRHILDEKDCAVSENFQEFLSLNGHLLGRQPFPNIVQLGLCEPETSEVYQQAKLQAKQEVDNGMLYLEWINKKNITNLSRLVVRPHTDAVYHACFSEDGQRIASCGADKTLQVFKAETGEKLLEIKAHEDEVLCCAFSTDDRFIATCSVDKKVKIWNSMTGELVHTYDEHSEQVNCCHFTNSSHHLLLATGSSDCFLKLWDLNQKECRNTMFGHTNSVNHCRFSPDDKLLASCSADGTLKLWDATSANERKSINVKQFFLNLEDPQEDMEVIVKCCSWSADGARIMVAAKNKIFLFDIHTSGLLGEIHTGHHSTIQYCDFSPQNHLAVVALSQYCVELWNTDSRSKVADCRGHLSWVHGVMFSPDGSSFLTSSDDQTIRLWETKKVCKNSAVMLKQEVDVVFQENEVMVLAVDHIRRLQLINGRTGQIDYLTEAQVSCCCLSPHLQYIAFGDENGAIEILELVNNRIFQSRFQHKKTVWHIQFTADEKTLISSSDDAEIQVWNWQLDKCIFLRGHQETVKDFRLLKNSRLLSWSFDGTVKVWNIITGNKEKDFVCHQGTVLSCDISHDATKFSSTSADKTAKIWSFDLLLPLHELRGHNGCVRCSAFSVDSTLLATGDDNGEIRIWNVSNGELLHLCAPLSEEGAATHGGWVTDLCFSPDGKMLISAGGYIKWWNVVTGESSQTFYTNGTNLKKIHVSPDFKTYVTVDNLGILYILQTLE

[13] = target: Arf-GAP with SH3 domain, ANK repeat and PH domain-containing protein 1 (Homo sapiens, UniProt Q9ULH1); assay type: functional;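 note: biochemical fluorescence polarization dose–response screen measuring inhibition of ASAP1; ASAP1 GAP domain stimulating GTP hydrolysis by truncated human ARF1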
Arf-GAP with SH3 domain, ANK repeat and PH domain-containing protein 1, sequence (Q9ULH1 whole entry, the tested form may be a part): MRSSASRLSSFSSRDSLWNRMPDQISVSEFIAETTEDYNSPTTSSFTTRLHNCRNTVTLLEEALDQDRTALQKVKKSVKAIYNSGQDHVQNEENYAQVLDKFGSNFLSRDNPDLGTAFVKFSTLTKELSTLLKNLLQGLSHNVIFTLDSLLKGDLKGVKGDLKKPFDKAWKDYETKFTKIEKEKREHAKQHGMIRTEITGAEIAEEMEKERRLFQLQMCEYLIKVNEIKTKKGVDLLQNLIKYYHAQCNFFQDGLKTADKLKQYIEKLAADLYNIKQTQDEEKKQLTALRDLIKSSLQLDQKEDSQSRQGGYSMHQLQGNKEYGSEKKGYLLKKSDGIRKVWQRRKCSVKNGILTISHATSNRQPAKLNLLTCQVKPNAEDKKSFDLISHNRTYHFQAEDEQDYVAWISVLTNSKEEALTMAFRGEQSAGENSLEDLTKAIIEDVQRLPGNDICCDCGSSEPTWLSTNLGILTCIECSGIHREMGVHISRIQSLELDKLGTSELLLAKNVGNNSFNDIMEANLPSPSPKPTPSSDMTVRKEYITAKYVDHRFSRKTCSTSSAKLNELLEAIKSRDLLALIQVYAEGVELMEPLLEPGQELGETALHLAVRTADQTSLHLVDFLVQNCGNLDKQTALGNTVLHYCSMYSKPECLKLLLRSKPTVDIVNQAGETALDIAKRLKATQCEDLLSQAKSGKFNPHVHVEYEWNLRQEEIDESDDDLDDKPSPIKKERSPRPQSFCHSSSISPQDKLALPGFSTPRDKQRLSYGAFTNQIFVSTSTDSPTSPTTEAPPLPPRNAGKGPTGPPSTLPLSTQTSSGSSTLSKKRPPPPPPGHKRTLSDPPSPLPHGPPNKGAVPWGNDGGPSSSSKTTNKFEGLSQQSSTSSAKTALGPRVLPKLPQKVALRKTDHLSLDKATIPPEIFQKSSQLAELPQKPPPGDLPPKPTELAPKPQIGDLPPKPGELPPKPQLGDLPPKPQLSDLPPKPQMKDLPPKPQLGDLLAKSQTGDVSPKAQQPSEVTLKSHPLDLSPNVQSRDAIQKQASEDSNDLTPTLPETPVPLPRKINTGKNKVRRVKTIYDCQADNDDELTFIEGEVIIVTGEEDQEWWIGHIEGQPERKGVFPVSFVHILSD

[14] = target: T3, Tyrosyl-DNA phosphodiesterase 2 (Homo sapiens, UniProt O95551); assay: human TDP2 enzyme inhibitors, dose response, biochemical, epi absorbance, IC50 (AID 743297)
T3 sequence (O95551 whole entry): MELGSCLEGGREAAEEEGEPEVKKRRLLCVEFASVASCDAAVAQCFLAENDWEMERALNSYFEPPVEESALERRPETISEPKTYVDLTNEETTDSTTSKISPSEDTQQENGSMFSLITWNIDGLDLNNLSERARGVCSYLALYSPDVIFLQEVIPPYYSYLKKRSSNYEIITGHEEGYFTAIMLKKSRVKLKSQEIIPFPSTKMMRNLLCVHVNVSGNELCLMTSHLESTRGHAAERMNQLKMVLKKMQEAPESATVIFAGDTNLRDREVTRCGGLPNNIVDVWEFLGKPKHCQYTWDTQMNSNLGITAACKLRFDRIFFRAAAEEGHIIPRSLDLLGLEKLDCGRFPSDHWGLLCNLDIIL

[15] = target: T4, Replicative DNA helicase DnaB (Mycobacterium tuberculosis, UniProt P9WMR3); assay: DnaB intein splicing inhibitors, dose response, biochemical, cell-free fluorescence (AID 449749); assay type: functional
T4 sequence (P9WMR3 whole entry): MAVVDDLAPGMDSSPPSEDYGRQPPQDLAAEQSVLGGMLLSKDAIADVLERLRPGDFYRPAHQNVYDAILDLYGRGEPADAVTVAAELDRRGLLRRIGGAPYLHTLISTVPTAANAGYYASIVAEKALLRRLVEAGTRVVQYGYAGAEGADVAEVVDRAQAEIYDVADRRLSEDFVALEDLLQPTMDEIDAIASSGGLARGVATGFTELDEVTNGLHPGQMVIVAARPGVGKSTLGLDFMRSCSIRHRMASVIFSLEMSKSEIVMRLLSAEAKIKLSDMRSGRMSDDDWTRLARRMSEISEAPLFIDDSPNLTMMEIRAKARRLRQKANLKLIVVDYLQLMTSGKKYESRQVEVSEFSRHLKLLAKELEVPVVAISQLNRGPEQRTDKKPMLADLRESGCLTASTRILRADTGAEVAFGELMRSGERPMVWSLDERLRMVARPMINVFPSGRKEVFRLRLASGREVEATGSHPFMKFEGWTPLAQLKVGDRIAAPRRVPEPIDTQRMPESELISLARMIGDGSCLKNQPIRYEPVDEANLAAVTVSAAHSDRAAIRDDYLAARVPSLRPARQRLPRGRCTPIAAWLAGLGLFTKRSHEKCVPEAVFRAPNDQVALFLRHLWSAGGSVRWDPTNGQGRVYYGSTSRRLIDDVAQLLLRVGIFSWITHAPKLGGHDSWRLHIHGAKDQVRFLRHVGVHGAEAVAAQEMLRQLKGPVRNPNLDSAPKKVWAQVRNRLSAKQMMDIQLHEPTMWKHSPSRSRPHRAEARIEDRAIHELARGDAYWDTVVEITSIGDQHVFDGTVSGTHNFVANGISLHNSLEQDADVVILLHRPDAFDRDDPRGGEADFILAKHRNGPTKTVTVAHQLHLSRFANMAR

Protein RecA = target: T5, Protein RecA (Mycobacterium tuberculosis, UniProt P9WHJ3); assay: Fluorescence Cell-Free Homogeneous Dose Retest to Identify Inhibitors of RecA-Intein Splicing Activity. [Related pubchem assays (depositor defined):AID2097, AID2223, AID489010, AID492950]; assay type: functional
T5 sequence (P9WHJ3 whole entry): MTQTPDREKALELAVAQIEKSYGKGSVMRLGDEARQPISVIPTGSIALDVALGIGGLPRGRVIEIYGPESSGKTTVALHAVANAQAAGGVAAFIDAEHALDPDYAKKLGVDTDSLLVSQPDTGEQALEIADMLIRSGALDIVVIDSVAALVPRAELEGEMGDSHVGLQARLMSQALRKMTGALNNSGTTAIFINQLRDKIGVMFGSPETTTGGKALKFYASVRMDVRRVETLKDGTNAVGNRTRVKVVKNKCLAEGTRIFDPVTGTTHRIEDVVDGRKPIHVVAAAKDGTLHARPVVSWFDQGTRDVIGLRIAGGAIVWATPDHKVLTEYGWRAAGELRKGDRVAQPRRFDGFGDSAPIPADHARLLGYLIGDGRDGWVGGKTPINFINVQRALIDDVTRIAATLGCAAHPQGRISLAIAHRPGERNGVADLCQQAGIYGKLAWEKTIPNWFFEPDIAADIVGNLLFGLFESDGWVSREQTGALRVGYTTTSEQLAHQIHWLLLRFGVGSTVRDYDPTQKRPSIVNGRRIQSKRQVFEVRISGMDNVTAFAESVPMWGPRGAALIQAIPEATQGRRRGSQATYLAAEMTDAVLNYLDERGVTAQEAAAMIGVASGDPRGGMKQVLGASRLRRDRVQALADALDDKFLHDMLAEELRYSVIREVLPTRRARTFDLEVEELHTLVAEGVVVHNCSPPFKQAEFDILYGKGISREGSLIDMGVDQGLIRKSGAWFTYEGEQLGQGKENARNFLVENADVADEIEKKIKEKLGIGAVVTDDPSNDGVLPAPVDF

[16] = target: T6, Sentrin-specific protease 8 (Homo sapiens, UniProt Q96LD8); assay type: functional
T6 sequence (Q96LD8 whole entry): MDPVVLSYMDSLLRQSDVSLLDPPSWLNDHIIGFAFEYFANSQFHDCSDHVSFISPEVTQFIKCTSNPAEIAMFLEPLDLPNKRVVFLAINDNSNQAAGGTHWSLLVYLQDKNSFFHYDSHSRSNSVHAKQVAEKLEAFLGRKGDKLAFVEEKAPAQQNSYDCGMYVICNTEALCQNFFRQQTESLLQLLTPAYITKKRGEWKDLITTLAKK

Caspase-3 = target: T7, Caspase-3 (Homo sapiens, UniProt P42574); assay: Dose-response confirmation of uHTS inhibitor hits of Sentrin-Specific Protease 8 in a Caspase-3 Fluorescence assay.; assay type: functional
T7 sequence (P42574 whole entry): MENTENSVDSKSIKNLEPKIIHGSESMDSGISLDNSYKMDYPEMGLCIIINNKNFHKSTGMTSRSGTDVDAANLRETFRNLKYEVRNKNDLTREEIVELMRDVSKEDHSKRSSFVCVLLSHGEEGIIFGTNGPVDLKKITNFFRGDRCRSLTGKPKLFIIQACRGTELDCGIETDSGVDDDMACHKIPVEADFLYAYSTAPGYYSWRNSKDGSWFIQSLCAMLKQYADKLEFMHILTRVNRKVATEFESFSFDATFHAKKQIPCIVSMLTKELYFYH

[17] = target: T6, Sentrin-specific protease 8; assay type: functional; remark: listed apart in the source
[18] = NIH/3T3 fibroblast cytotoxicity, dose response, cytotoxicity control for T. cruzi growth inhibitor project, cell-based, cherry-pick samples, set 2 (AID 651817); assay type: functional; settings: NIH3T3
[19] = target: T8, Methionyl-tRNA synthetase, putative (Trypanosoma brucei brucei, UniProt Q38C91); assay type: functional, Trypanosoma brucei brucei strain 927/4 GUTat10.1
T8 sequence (Q38C91 whole entry): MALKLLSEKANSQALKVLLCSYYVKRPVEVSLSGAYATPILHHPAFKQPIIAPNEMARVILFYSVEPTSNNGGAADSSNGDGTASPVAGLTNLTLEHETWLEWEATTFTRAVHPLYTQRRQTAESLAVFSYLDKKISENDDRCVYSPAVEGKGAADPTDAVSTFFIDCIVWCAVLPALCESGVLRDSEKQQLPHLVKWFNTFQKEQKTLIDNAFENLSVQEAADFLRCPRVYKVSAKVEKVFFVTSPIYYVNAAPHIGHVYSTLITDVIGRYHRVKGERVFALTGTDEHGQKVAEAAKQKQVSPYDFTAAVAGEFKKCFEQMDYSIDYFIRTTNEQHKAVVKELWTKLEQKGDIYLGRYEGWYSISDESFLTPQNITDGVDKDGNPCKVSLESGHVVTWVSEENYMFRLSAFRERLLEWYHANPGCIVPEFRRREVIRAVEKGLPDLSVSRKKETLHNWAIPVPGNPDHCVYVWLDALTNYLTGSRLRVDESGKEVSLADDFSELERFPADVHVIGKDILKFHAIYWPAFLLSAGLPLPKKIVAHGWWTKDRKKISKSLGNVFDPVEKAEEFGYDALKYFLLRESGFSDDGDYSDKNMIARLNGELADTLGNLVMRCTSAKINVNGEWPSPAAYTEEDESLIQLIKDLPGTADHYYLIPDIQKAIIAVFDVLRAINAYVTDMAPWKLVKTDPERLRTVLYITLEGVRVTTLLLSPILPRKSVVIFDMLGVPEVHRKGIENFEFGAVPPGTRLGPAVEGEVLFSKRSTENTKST

[20] = Counterscreen for inhibitors of Trypanosoma brucei methionyl tRNA synthetase (MetRS): Luminescence-based cell-based high throughput dose response assay to identify compounds that are cytotoxic to Jurkat human T lymphocyte cells.; assay type: functional
[21] = target: T8, Methionyl-tRNA synthetase, putative; assay type: functional, Trypanosoma brucei brucei strain 927/4 GUTat10.1; remark: listed apart in the source

CN(C)c1ccc(O)c2c1CC1CC3[C@@H](N(C)C)C(=O)C(C(N)=O)C(=O)[C@]3(O)C(=O)C1C2=O (stereo not given in full)
AC50 [1]: < 0.26 µM (active) | AC50 (Escherichia coli [2]): 11.8 µM (active) | AC50 [3]: 61.2 µM (active) | AC50 [4]: < 0.26 µM (active) | AC50 [5]: < 0.26 µM (active) | AC50 (Escherichia coli [6]): 1.35 µM (active) | EC50 [7]: 0.659 µM (active) | AC50 [8]: < 0.26 µM (active) | CC50 [9]: 29 µM (active) | EC50 (Mu-type opioid receptor): 92.5 µM (inactive)

Cc1ccc(NC(=S)NNC(=O)c2ccc(N3CCOCC3)c([N+](=O)[O-])c2)cc1Cl
EC50 (Beta-galactosidase): > 40 µM (inactive) | IC50 [10]: > 40 µM (not active) | AC50 [11]: 30.9 µM (active)

CC(=O)c1cccc(-c2ccc3c(=O)[nH]c(Nc4ccccc4)cc3c2)c1
IC50 [12]: 3.02 µM (active) | IC50 [13]: 165 µM (inactive) | IC50 [14]: 25.9 µM (inactive) | AC50 [15]: > 380 µM (inactive) | EC50 (Protein RecA): 2.14 µM (active)

Cc1ccc(S(=O)(=O)N2CCOCC2)cc1C(=O)OCC(=O)N1CCc2ccccc2C1
IC50 [16]: 62.2 µM (inactive) | IC50 (Caspase-3): 92.7 µM (inactive) | IC50 [17]: 24.4 µM (active)

Cc1ccc(S(=O)(=O)N(C)C[C@@H]2Oc3c(NC(=O)c4nc5ccccc5s4)cccc3C(=O)N([C@@H](C)CO)C[C@@H]2C)cc1
AC50 [18]: 39 µM (inactive)

CSC[C@H]1CN(Cc2cccnc2)C(=O)[C@@H]1CC(=O)Nc1ccc(Br)cc1
IC50 [19]: 3.02 µM (active) | IC50 [20]: 83.3 µM (inactive) | IC50 [21]: 7.58 µM (active)
